Counter-ions that a name gives are not always drawn. Like-named read-outs stand apart in the source and are kept apart here.

The text below walks through data of patent publication US20020065279A1, “Arylsulfonic acid salts of pyrimidine-based antiviral” (priority 2000, published 2002).

The nature of series [1]: Acid selection: salt formation of compound 1 with acids. Type of series: physicochemical. The text has this:
In order to prepare suitable formulations of the compounds of formula I below, standard salt formation methods were pursued. […] These acids represent most of the pharmaceutical salts used today.

For series [2] the following is noted: first printed pKa of the acid; cited from earlier work.
The nature of series [3]: Thermal stability of salts at 45° C. (HPLC purity). Type of series: physicochemical.
Series [4] is described as follows: Aqueous stability of salts in deionized water (HPLC, UV 254.4 nm). In kind it is physicochemical. Here is the method: The tosylate salts was evaluated at a concentration of 4.7 mg/mL and the besilate salt was evaluated at a concentration of 3.2 mg/mL. Stability was monitored via HPLC using UV detection at 254.4 nm.
Series [5] can be described thus: Aqueous solubility of compound 1 free base and salts. In kind it is physicochemical. The text has this: A variety of pyrimidine-based antiviral compounds have been described in co-pending U.S. Ser. No. 09/249,64 1, filed Feb. 12, 1999 and in PCT application US99/03136. The development of a pyrimidine-based antiviral agent (such as those described hereinbelow) for clinical use required the identification of a salt form with optimal physical and chemical properties. The most critical properties included crystallinity, aqueous solubility, light stability and thermal stability. As noted above, applications U.S. Ser. No. 09/249,641 and PCT US99/03136 describe pyrimidine derivatives both as free bases and as their pharmaceutically acceptable salts. Among the salts listed for this group of compounds exre hydrochloric, hydrobromic, nitric, carbonic, monohydrogencarbonic, phosphoric, monohydrogenphosphoric, dihydrogenphosphoric, sulfuric, monohydrogensulfuric, hydriodic, or phosphorous acids and the like, as well as the salts derived from organic acids like acetic, propionic, isobutyric, oxalic, maleic, malonic, benzoic, succinic, suberic, fumaric, mandelic, phthalic, benzenesulfonic, p-tolylsulfonic, citric, tartaric, miethanesulfonic, and the like. Also included are salts of amino acids such as arginate and the like, and salts of organic acids like glucuronic or galactunoric acids and the like.
The besilate and tosylate salts represent improvement over the free base in solubility as described in Table 2 below. The increase in solubility represents a significant advantage over the free base for formulations that are suitable for therapeutic administration.

The nature of series [6]: Light stability of salts (ambient light and window glass filtered sunlight, HPLC purity). In kind it is physicochemical.
The nature of series [7]: pKa of the free base of compound 1.

As for `O=C(O)[C@@H](O)[C@H](O)C(=O)O` [D-Tartaric], the “Result (salt formation with compound 1)” value in series [1] (Solvent EtOAc) and in series [1] (Solvent MeOH) was “No salt formed” in each case.
On to `O=[N+]([O-])O` [Nitric], for which the “Result (salt formation with compound 1)” value in series [1] (Solvent EtOH) is on record as “Decomposition”. Also, the “pKa (acid)” value in series [2] was −1.4.
L-Tartaric: the “Result (salt formation with compound 1)” value in series [1] (Solvent Et2O), in series [1] (Solvent EtOAc), in series [1] (Solvent EtOH) and in series [1] (Solvent MeOH) was “No salt formed” throughout.
On to Benzenesulfonic, for which the “Result (salt formation with compound 1)” value in series [1] (Solvent CH2Cl2/hexanes), in series [1] (Solvent CH3CN), in series [1] (Solvent CHCl3/hexanes), in series [1] (Solvent EtOAc/MeOH), in series [1] (Solvent EtOH) and in series [1] (Solvent EtOH/hexanes) was “Yellow crystals” each time. The “pKa (acid)” value in series [2] was 1.6.
As for `O=C(O)CC(O)(CC(=O)O)C(=O)O` [Citric], the “Result (salt formation with compound 1)” value in series [1] (Solvent Et2O), in series [1] (Solvent EtOAc) and in series [1] (Solvent EtOAc/MeOH) was “No salt formed” throughout.
Consider `O=C(O)/C=C\C(=O)O` [Maleic], for which the “Result (salt formation with compound 1)” value in series [1] (Solvent Et2O) and in series [1] (Solvent EtOAc) was “No salt formed” in each case.
`Cl` [Hydrochloric]: the “Result (salt formation with compound 1)” value in series [1] (Solvent CH3CN), in series [1] (Solvent CHCl3), in series [1] (Solvent Et2O), in series [1] (Solvent EtOAc), in series [1] (Solvent IPA) and in series [1] (Solvent MeOH) was “Decomposition” throughout.
Regarding `NC(=O)CCC(=O)O` [Succinamic], the “Result (salt formation with compound 1)” value in series [1] (Solvent EtOAc) and in series [1] (Solvent EtOAc/MeOH) was “No salt formed” throughout. In addition, the “pKa (acid)” value in series [2] is reported as 4.4.
The term Aqueous Solubility denotes how much of the substance goes into solution per volume. Take `Cc1nc(N2CCOCC2C)nc(-n2ccnc2)c1[N+](=O)[O-]` (stereo not drawn) [Tosylate Salt, 2-(3S-3-methylmorphoamino)-4-(imidazol-1-yl)-6-methyl-5-nitropyrimidine p-toluenesulfonate]: the “purity %, HPLC (thermal stability)” value in series [3] (8 hours), in series [3] (24 hours), in series [3] (48 hours), in series [3] (72 hours), in series [3] (170 hours) and in series [3] (250 hours) was 100% each time. In addition, the “purity %, HPLC (thermal stability)” value in series [3] (1632 hours) is 100%. For the same molecule, the “purity %, HPLC (aqueous stability)” value was found to be 100% in series [4] (4.7 mg/mL, 48 hours); 100% in series [4] (4.7 mg/mL, 147 hours); 97.3% in series [4] (4.7 mg/mL, 171 hours); 93.1% in series [4] (4.7 mg/mL, 201 hours); 92.8% in series [4] (4.7 mg/mL, 216 hours); 64.6% in series [4] (4.7 mg/mL, 1560 hours). In addition, the “Aqueous Solubility” value in series [5] came to 36 mg/mL. For the same molecule, the “purity %, HPLC (light stability)” value stood at 100% in series [6] (24 hours), 100% in series [6] (48 hours), 97.6% in series [6] (216 hours) and 86.6% in series [6] (1560 hours).
`CC(=O)O` [Acetic]: the “Result (salt formation with compound 1)” value in series [1] (Solvent Et2O) is “No salt formed”.
In the case of `Br` [Hydrobromic], the “Result (salt formation with compound 1)” value in series [1] (Solvent EtOH) is on record as “Decomposition”.
In the case of `Cc1ccc(S(=O)(=O)O)cc1` [Toluenesulfonic], the “Result (salt formation with compound 1)” value in series [1] (Solvent CHCl3/hexanes) and in series [1] (Solvent EtOAc) was “Yellow crystals” each time.
Usually pKa stands for the negative logarithm of the acid dissociation constant. Low readings indicate a group that gives up its proton readily, high ones a group that holds its proton tightly. Turning to `Cc1nc(N2CCOCC2C)nc(-n2ccnc2)c1[N+](=O)[O-]` (stereo not drawn) [Compound 1, 2-(3S-3-methylmorpholino)-4-(imidazol-1-yl)-6-methyl-5-nitropyrimidine], the pKa in series [7] came out at 4.09. For the same molecule, the “Aqueous Solubility” value in series [5] worked out at 1.68 mg/mL.
Take `O=C(O)c1cccc(O)c1` [3-Hydroxybenzoic]: in series [1] (Solvent EtOAc), the “Result (salt formation with compound 1)” value is reported as “No salt formed”.
For the molecule `O=CO` [Formic], the “Result (salt formation with compound 1)” value in series [1] (Solvent EtOH) is “No salt formed”.
Take Fumaric: in series [1] (Solvent EtOAc/MeOH), the “Result (salt formation with compound 1)” value is reported as “No salt formed”.
With `CS(=O)(=O)O` [Methanesulfonic], the “Result (salt formation with compound 1)” value in series [1] (Solvent CH2Cl2), in series [1] (Solvent Et2O), in series [1] (Solvent EtOAc), in series [1] (Solvent EtOAc/CH2Cl2) and in series [1] (Solvent EtOAc/hexanes) was “Decomposition” each time.
Consider `O=S(=O)(O)O` [Sulfuric], for which the “Result (salt formation with compound 1)” value in series [1] (Solvent EtOH) is reported as “Decomposition”.
As for `O=C(O)c1ccccc1` [Benzoic], the “Result (salt formation with compound 1)” value in series [1] (Solvent Et2O) and in series [1] (Solvent EtOAc) was “No salt formed” each time.
Turning to `Cc1nc(N2CCOCC2C)nc(-n2ccnc2)c1[N+](=O)[O-]` (stereo not drawn) [Besilate Salt, 2-(3S-3-methylmorpholino)-4-(imidazol-1-yl)-6-methyl-5-nitropyrimidine benzenesulfonate], the “purity %, HPLC (thermal stability)” value in series [3] (8 hours), in series [3] (24 hours), in series [3] (48 hours), in series [3] (72 hours), in series [3] (170 hours) and in series [3] (250 hours) was 100% each time. Further, in series [3] (1632 hours), the “purity %, HPLC (thermal stability)” value came out at 100%. The “purity %, HPLC (aqueous stability)” value in series [4] (3.2 mg/mL, 48 hours) was determined as 100%; in series [4] (3.2 mg/mL, 147 hours) it was 100%; in series [4] (3.2 mg/mL, 171 hours) it was 97.4%; in series [4] (3.2 mg/mL, 201 hours) it was 91.7%; in series [4] (3.2 mg/mL, 216 hours), 91.7%; in series [4] (3.2 mg/mL, 1560 hours), 61.4%. The “Aqueous Solubility” value in series [5] (listed as Resilate Salt) was determined as 44 mg/mL. The “purity %, HPLC (light stability)” value is 100% in series [6] (24 hours), 100% in series [6] (48 hours), 97.3% in series [6] (216 hours) and 93.1% in series [6] (1560 hours).
Take `O=C(O)c1ccccc1O` [Salicylic]: the “Result (salt formation with compound 1)” value in series [1] (Solvent Et2O) and in series [1] (Solvent EtOAc) was “No salt formed” each time.
